Counter-ions that a name gives are not always drawn. Like-named read-outs stand apart in the source and are kept apart here.
Assays:
SUDHL10 [1] = test: Induction of caspase-3/7 activity (Caspase-Glo 3/7), SUDHL10; type: cell-based; conditions: caspase-3/7 induction, SUDHL10 cells, 3 h treatment, median
Method in brief: (§1)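 Caspase-Glo 3/7 luminescence measured after 3 h compound exposure at 37 °C in SUDHL10 and SUDHL5 cells. EC50 values come from background-corrected signals, with curve bottom set to 1 and plateau set to maximal induction by the reference compound.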

SUDHL5 [2] = test: Induction of cytotoxicity (CellTiter-Glo, 5 h), SUDHL5
MCL-1 = MCL-1 (Homo sapiens, UniProt Q07820); test: Protein-protein interaction assay MCL-1/Noxa BH3 peptide (MCL-1 assay), TR-FRET; type: binding; conditions: MBP-MCL-1 / Noxa BH3-derived peptide, median
Method in brief: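 MBP-MCL-1 (1 nM final) was preincubated 10 min at 22 °C with compounds (11 concentrations, 0.1 nM–20 μM, duplicates) in Tris pH 7 buffer with NaCl, KF, Tween-20, DTT and BGG. After 1 h at 22 °C in the dark plus overnight at 4 °C, anti-MBP Eu-cryptate/streptavidin-XL665 TR-FRET was read; IC50 came from a 4-parameter fit.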

SUDHL10 [3] = test: Induction of cytotoxicity (CellTiter-Glo, 5 h), SUDHL10
SUDHL10 [4] = test: Anti-proliferative effect (CellTiter-Glo, 72 h), SUDHL10; type: cell-based; conditions: SUDHL10 cells, antiproliferation, median, read-out: Antiproli SUDHL10 [M] (median)
Procedure: Assessment of the Anti-Proliferative Effect of Compounds in Different Cell Lines
The impact of compounds on the proliferation of different cell lines was assessed using the CellTiter-Glo® Luminescent Cell Viability reagent from Promega (G7573). Of note, SUDHL10 and SUDHL5 (DLBCL), NCI-H929 (Multiple Myeloma), A2780 (ovarian carcinoma) as well as MV-4-11(AML) cells are sensitive to MCL-1 inhibition.
In parallel, cells were plated in a reference (day 0) plate for time zero determination.
Rim wells were excluded. The cells were incubated for 72 h hours in a humidified incubator at 37° C. The day 0 plate was measured by adding 30 μl/well of CTG solution (CellTiter-Glo® Luminescent Cell Viability reagent, Promega G7573) to time zero wells in the reference plate followed by a 10 minutes incubation and luminescence reading at 0.1 ms, using the PHERAstar FS microplate reader (BMG Labtech).
After 72 h incubation, the treated plates were measured in the same way as the day 0 plate mentioned above.

A2780 = test: Anti-proliferative effect (CellTiter-Glo, 72 h), A2780; type: cell-based; conditions: A2780 cells, median, read-out: IC50 antiproliferation assay A2780 [M] (median)
Method in brief: (§2)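 CellTiter-Glo luminescence readout of viability, taken on a time-zero plate at day 0 and on treated plates after 72 h incubation at 37 °C in a humidified incubator. Reagent incubation 10 min before reading.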

SUDHL5 [5] = test: Induction of caspase-3/7 activity (Caspase-Glo 3/7), SUDHL5; type: cell-based; conditions: caspase-3/7 induction, SUDHL5 cells, 3 h treatment, median
Method in brief: as §1

SUDHL5 [6] = test: Anti-proliferative effect (CellTiter-Glo, 72 h), SUDHL5; type: cell-based; conditions: SUDHL5 cells, antiproliferation, median, read-out: Antiproli SUDHL5 [M] (median)
Method in brief: as §2

[7] = Homo sapiens, SU-DHL-5, 5 h, read-out: Cytotox SUDHL5 [M] (median), SUDHL5 cells, cytotoxicity induction, CellTiter-Glo, 5 h incubation, median
[8] = Homo sapiens, SU-DHL10, 5 h, read-out: Cytotox SUDHL10 [M] (median), SUDHL10 cells, cytotoxicity induction, CellTiter-Glo, 5 h incubation, median
[9] = Homo sapiens, SU-DHL10, 72 h, 72 h incubation
[10] = Homo sapiens, SU-DHL-5, 72 h, 72 h incubation
[11] = read-out: Cytotox SUDHL5 [M] (median), SUDHL5 cells, cytotoxicity induction, CellTiter-Glo, 5 h incubation, median
[12] = read-out: Cytotox SUDHL10 [M] (median), SUDHL10 cells, cytotoxicity induction, CellTiter-Glo, 5 h incubation, median

Sequence of MCL-1 (Q07820 whole entry): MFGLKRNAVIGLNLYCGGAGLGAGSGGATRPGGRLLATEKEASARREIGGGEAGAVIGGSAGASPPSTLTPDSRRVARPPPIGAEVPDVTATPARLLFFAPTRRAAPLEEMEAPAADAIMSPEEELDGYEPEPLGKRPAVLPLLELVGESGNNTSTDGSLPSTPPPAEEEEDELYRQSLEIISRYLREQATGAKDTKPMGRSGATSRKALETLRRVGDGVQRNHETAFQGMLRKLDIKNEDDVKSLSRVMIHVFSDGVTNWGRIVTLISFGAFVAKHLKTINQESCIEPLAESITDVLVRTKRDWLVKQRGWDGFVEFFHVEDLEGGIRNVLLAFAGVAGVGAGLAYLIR

| Compound | EC50 (SUDHL10 [1]; Homo sapiens, SU-DHL10, 3 h) | IC50 (SUDHL5 [2]; [7]) | IC50 (MCL-1) | IC50 (SUDHL10 [3]; [8]) | IC50 (SUDHL10 [4]; [9]) | IC50 (A2780; Homo sapiens, A2780, 72 h) | EC50 (SUDHL5 [5]; Homo sapiens, SU-DHL-5, 3 h) | IC50 (SUDHL5 [6]; [10]) | IC50 (SUDHL5 [2]; read-out: Cytotox SUDHL5 [M] (median), SUDHL5 cells, cytotoxicity induction, CellTiter-Glo, 5 h, median) | IC50 (SUDHL10 [3]; Homo sapiens, SU-DHL10, 5 h, read-out: Cytotox SUDHL10 [M] (median), SUDHL10 cells, cytotoxicity induction, CellTiter-Glo, 5 h, median) | IC50 (SUDHL10 [4]; 72 h) | EC50 (SUDHL5 [5]) | IC50 (SUDHL5 [6]; 72 h) | EC50 (SUDHL10 [1]) | IC50 (SUDHL5 [2]; [11]) | IC50 (SUDHL10 [3]; [12]) | IC50 (A2780) | IC50 (SUDHL5 [6]; 72 h incubation) |
| --- | --- | --- | --- | --- | --- | --- | --- | --- | --- | --- | --- | --- | --- | --- | --- | --- | --- | --- |
| Cc1ccc2c(CCCOc3cccc4ccccc34)c(C(=O)O)n3c2c1-c1c(C)nn(C)c1COCC=CC3 (racemic) [Example 038, (rac)-(E/Z)-1,3,4-trimethyl-7-[3-(1-naphthyloxy)propyl]-1,10,13,15-tetrahydropyrazolo[4′,3′:9,10][1,6]oxazacycloundecino[8,7,6-hi]indole-8-carboxylic Acid] | > 33 µM | 1.46e-05 M | 9.65 nM | > 3.3e-05 M | 1.46e-05 M | > 3.3e-05 M | 13.9 µM | 1.64e-05 M |  |  |  |  |  |  |  |  |  |  |
| Cc1nn(C)c2c1-c1cccc3c(CCCOc4cccc5cc(Cl)ccc45)c(C(=O)O)n(c13)CCCCOC2 (racemic) [Example 040, (rac)-7-{3-[(6-chloronaphthalen-1-yl)oxy]propyl}-1,3-dimethyl-1,10,11,12,13,15-hexahydropyrazolo[4′,3′:9,10][1,6]oxazacycloundecino[8,7,6-hi]indole-8-carboxylic Acid] | > 33 µM | 1.66e-05 M | 14.4 nM | > 3.3e-05 M | 3.25e-06 M | 1.9e-05 M | 21 µM | 1.33e-05 M |  |  |  |  |  |  |  |  |  |  |
| CCc1c2c(nn1CCN1CCOCC1)COCCCCn1c(C(=O)O)c(CCCOc3cccc4ccccc34)c3cccc-2c31 (racemic) [Example 201, (rac)-3-ethyl-2-[2-(morpholin-4-yl)ethyl]-7-[3-(naphthalen-1-yloxy)propyl]-2,10,11,12,13,15-hexahydropyrazolo[4′,3′:9,10][1,6]oxazacycloundecino[8,7,6-hi]indole-8-carboxylic Acid] | 8.57 µM | 2.57e-06 M | 4.27 nM | 7.98e-06 M | 7.54e-06 M |  | 2.53 µM | 4.3e-06 M |  |  |  |  |  |  |  |  |  |  |
| COc1ccc(OCc2nn(C)c3c2-c2cccc4c(CCCOc5cccc6ccccc56)c(C(=O)O)n(c24)CCCCOC3)cc1 (single isomer, unassigned; enantiomer 1) [Example 320, 3-[(4-methoxyphenoxy)methyl]-1-methyl-7-[3-(naphthalen-1-yloxy)propyl]-1,10,11,12,13,15-hexahydropyrazolo[4′,3′:9,10][1,6]oxazacycloundecino[8,7,6-hi]indole-8-carboxylic Acid-N-ethylethanamine Salt (Enantiomer 1)] |  |  | 22.6 nM |  |  | 1.41e-05 M |  |  | 1.1e-05 M | 2.29e-05 M | 9.36e-06 M | 13.8 µM | 5.43e-06 M |  |  |  |  |  |
| Cc1nn(C)c2c1-c1cccc3c(CCCOc4cccc5ccccc45)c(C(=O)O)n(c13)CCCOC2 (single isomer, unassigned; enantiomer 2) [Example 045, 9,11-dimethyl-1-[3-(naphthalen-1-yloxy)propyl]-5,6,8,9-tetrahydro-4H-pyrazolo[4′,3′:8,9][1,5]oxazecino[7,6,5-hi]indole-2-carboxylic acid-N-ethylethanamine Salt (Enantiomer 2)] |  |  | 25.9 nM |  |  |  |  |  |  |  |  | > 33 µM |  | 32.7 µM | 2.59e-05 M | 2.89e-05 M | 2.78e-05 M | 5.73e-06 M |
| Cc1nn(C)c2c1-c1cccc3c(CCCOc4cccc5cc(F)ccc45)c(C(=O)O)n(c13)CCCOC2 (single isomer, unassigned; enantiomer 2) [Example 048, 1-{3-[(6-fluoronaphthalen-1-yl)oxy]propyl}-9,11-dimethyl-5,6,8,9-tetrahydro-4H-pyrazolo[4′,3′:8,9][1,5]oxazecino[7,6,5-hi]indole-2-carboxylic acid-N-ethylethanamine Salt (Enantiomer 2)] | 17.8 µM | 1.19e-05 M | 13.6 nM | 1.71e-05 M |  | 1.01e-05 M | 13.2 µM | 4.84e-06 M |  |  |  |  |  |  |  |  |  |  |
| Cc1c2c(nn1C)COCCCn1c(C(=O)O)c(CCCOc3cccc4ccccc34)c3cccc-2c31 (single isomer, unassigned; enantiomer 2) [Example 065, 10,11-dimethyl-1-[3-(naphthalen-1-yloxy)propyl]-5,6,8,10-tetrahydro-4H-pyrazolo[4′,3′:8,9][1,5]oxazecino[7,6,5-hi]indole-2-carboxylic acid-N-ethylethanamine Salt (Enantiomer 2)] |  |  | 39.3 nM |  |  |  |  |  |  |  |  | > 33 µM |  | > 33 µM | > 3.3e-05 M | > 3.3e-05 M | > 3.3e-05 M | 2.61e-05 M |
| CCn1nc(C2CC2)c2c1COCCCCn1c(C(=O)O)c(CCCOc3cccc4ccccc34)c3cccc-2c31 (single isomer, unassigned; enantiomer 2) [Example 090, 3-cyclopropyl-1-ethyl-7-[3-(naphthalen-1-yloxy)propyl]-1,10,11,12,13,15-hexahydropyrazolo[4′3′:9,10][1,6]oxazacycloundecino[8,7,6-hi]indole-8-carboxylic acid-N-ethylethanamine Salt (Enantiomer 2)] |  |  | 10.3 nM |  |  |  |  |  |  |  |  | > 33 µM |  | > 33 µM | > 3.3e-05 M | > 3.3e-05 M | 1.98e-05 M | 1.5e-05 M |
| CCc1c2c(nn1C)COCCCCn1c(C(=O)O)c(CCCOc3cccc4ccccc34)c3cccc-2c31 (single isomer, unassigned; enantiomer 2) [Example 149, 3-Ethyl-2-methyl-7-[3-(1-naphthyloxy)propyl]-2,10,11,12,13,15-hexahydropyrazolo[4′,3′:9,10][1,6]oxazacycloundecino[8,7,6-hi]indole-carboxylic acid-N-ethylethanamine Salt (Enantiomer 2)] |  |  | 66.6 nM |  |  |  |  |  |  |  |  | > 33 µM |  | > 33 µM | > 3.3e-05 M | > 3.3e-05 M | 2.84e-05 M | 1.26e-05 M |
| CCc1c2c(nn1C)COCCCCn1c(C(=O)O)c(CCCOc3cccc4ccccc34)c3ccc(C)c-2c31 (single isomer, unassigned; enantiomer 2) [Example 155, 3-Ethyl-2,4-dimethyl-7-[3-(1-naphthyloxy)propyl]-2,10,11,12,13,15-hexahydropyrazolo[4′,3′:9,10][1,6]oxazacycloundecino[8,7,6-hi]indole-8-carboxylic acid-N-ethylethanamine Salt (Enantiomer 2)] |  |  | 48 nM |  |  |  |  |  |  |  |  | > 33 µM |  | > 33 µM | > 3.3e-05 M | > 3.3e-05 M | 2.25e-05 M | 8.34e-06 M |
| Cc1c2c(nn1CC(F)(F)F)COCCCCn1c(C(=O)O)c(CCCOc3cccc4ccccc34)c3cccc-2c31 [Example 241, 3-methyl-7-[3-(naphthalen-1-yloxy)propyl]-2-(2,2,2-trifluoroethyl)-210,11,12,13,15-hexahydropyrazolo[4′,3′:9,10][1,6]oxazacycloundecino[8,7,6-hi]indole-8-carboxylic Acid] | 17.1 µM | 4.64e-06 M | 7.51 nM | 1.92e-05 M |  | 2.89e-05 M | 3.75 µM | 9.89e-06 M |  |  |  |  |  |  |  |  |  |  |
